Measured values as given in US8575310B2, “Bioactive pentapeptides from rice bran and use thereof” (Board of Trustees of the University of Arkansas, priority 2009, dated 2013).
No end group written: not given here.

Experiments:
Type in all cases: cell-based, human
[1] = system: Caco-2 cells; assay: Trypan blue dye exclusion assay, viability of Caco-2 cells; conditions: 200 μM concentration
Procedure: Human Cancer Cell Cultures. Human colon epithelial cancer cell line Caco-2, liver epithelial cancer cell line HepG2 and breast epithelial cancer cell line HTB-26 were cultured separately at 37° C. in Dulbecco's Modified Eagles Medium (DMEM) in the presence of 10% fetal bovine serum, supplemented with 1 mM L-glutamine, sodium pyruvate, 1 mM sodium bicarbonate, and 50 μg/mL gentamycin. Human lung epithelial cancer cell line NCI-H1299 was cultured in RPMI-1640 medium supplemented with 10% fetal bovine serum. After cell growth reached 70%, cell viability was monitored by employing the trypan blue dye exclusion assay after peptide treatments. Briefly, the monolayer was allowed to grow for 2-3 days at 37° C. on 24-well flat-bottom plates. One hundred microliters (100 μL) of rice bran peptide fractions at 1 mg/mL protein content was added to the cultures. For positive control genistein at 200 and 400 μM in saline and for negative control saline alone was used. After 24-48 h of treatments, the medium was removed, and the cells were briefly dissociated with 0.1% trypsin and 0.53 mM ethylenediaminetetraacetic acid (EDTA) solution. Following this, 0.5% trypan blue dye mixed in growth medium was added to each well. Samples were then aspirated from each well and loaded onto chambers in a hemocytometer cell, and cell counts were taken. […]

[2] = system: amyloid-induced neuroblastoma cells (IMR-32); assay: Protection against amyloid beta (1-42) toxicity in neuroblastoma cells, MTS assay; conditions: compared to amyloid-induced cells not treated with peptides
Procedure: Evaluation of Anti-Alzheimer's Disease Activity: Human neuroblastoma cells (IMR-32-ATCC Number CCL-127) was used as model system to evaluate the protective role of rice bran peptide fractions against amyloid beta (1-42) (Cat. No. PP69, EMD Chemicals, Inc., San Diego, Calif.) dependent toxicity. Human neuroblastoma cells were grown in the presence of beta amyloid peptide with and without bran peptide fractions at different levels. Cell survival to the amyloid-induced neuroblastoma cells upon bran peptide treatments was examined by the MTS [(3-(4,5-dimethylthiazole-2-yl)-5-(3-carboxymethoxyphenyl)-2-(4-sulfophenyl)-2H-tetrazolium, inner salt] assay, and compared to the cytotoxicity observed with amyloid-induced neuroblastoma cells.
Neuroblastoma cells were treated with amyloid peptide followed by treatment with rice bran peptide fractions. Cytotoxicity to the amyloid-induced neuroblastoma cells was examined by the MTS assay.

[3] = system: colon cancer cells; conditions: pH 7
Procedure: An RSM design with a 3-factorial model was designed to use combinations of pH, RH (relative humidity), temperature and degree of glycosylation to evaluate enhanced anti-cancer activity of a modified (glycosylated) peptide. Peptide-glucose mixture samples were prepared at the following conditions/combinations: RH 55, 65, & 75 at pHs 6, 7 and 8 maintained at 40, 50 and 60° C. temperatures and tested for growth inhibition activity on colon cancer cells. The degree of glycosylation increased with increasing time at varying RH, and achieved a maximum of ˜20% degree of glycosylation.
Optimization for Degree of Glycosylation: The bioactive pentapeptide (0.02 g) (SEQ ID NO: 1) and D-glucose (0.002 g) were dissolved in water to give a 10% (w/v) protein solution. The solution pH was adjusted to varying pHs based on RSM design (6, 7, 8) and stirred for 10 min, and freeze-dried. The freeze-dried mixture was placed on an aluminum plate, and incubated at 50° C. at varying relative humidity ([…], 65%, 75%) based on the RSM design illustrated below in Table 3.

Row | Molecule | viable cells on Caco-2 cell line [1] [viable cells/mL] | reduction in cytotoxicity of amyloid-induced neuroblastoma cells [2] [%] | cancer cell activity inhibition [3] [%]
1 | O=c1c(-c2ccc(O)cc2)coc2cc(O)cc(O)c12 [Genistein] | 20000 | – | –
2 | EQRPR [bioactive pentapeptide, Glu-Gln-Arg-Pro-Arg] | – | ~45 | ~80
